ChEMBL document CHEMBL4418478, “2,4,5-trisubstituted thiazole compounds,preparation methods,pharmaceutical compositions and medical uses thereof” (2016)

What follows are compounds tested against Phospholipid transfer protein (Homo sapiens) (UniProt P55058) (assay: Inhibition of PLTP in plasma (unknown origin) at 150 uM using liver phospholipid, phospholipids liposome and HDL and TSE incubated for 1 hr relative to control).
Phospholipid transfer protein (Homo sapiens), sequence (P55058 whole entry): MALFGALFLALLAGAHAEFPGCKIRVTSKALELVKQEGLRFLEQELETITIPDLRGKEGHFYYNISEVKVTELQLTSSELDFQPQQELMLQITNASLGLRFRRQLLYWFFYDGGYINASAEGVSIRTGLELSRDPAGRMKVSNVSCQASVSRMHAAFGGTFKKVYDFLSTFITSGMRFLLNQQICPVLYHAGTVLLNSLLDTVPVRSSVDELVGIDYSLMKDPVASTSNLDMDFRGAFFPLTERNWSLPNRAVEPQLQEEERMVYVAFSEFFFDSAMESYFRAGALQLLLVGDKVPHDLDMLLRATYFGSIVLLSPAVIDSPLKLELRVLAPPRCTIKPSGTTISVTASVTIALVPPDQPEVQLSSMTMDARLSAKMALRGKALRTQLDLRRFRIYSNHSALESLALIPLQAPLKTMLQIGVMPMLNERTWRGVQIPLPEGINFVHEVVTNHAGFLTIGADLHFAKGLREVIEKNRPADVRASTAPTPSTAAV

inhibition, 0%:
O=C(Nc1nc(-c2ccc(O)cc2)c(Cc2ccccc2)s1)c1ccc(Cl)cc1
COc1ccc(C(=O)Nc2nc(-c3ccc(O)cc3)c(Cc3ccccc3)s2)cc1
COc1ccc(-c2nc(N)sc2CC2CCCCC2)cc1
